Results as given in ChEMBL document CHEMBL1132210, “Ligands for the tyrosine kinase p56lck SH2 domain: discovery of potent dipeptide derivatives with monocharged, nonhydrolyzable phosphate replacements” (J Med Chem, 1999).
pKd: −log10 of the molar value. Non-standard residues stand in square brackets, D forms with d. Residues, ends and D or L forms follow the SMILES beside them. Phe(4-CH2COOH) = N[C@@H](Cc1ccc(CC(=O)O)cc1)C(=O)O

Biological target: Tyrosine-protein kinase Lck (Homo sapiens, UniProt P06239)
Sequence (P06239 whole entry, the tested form may be a part): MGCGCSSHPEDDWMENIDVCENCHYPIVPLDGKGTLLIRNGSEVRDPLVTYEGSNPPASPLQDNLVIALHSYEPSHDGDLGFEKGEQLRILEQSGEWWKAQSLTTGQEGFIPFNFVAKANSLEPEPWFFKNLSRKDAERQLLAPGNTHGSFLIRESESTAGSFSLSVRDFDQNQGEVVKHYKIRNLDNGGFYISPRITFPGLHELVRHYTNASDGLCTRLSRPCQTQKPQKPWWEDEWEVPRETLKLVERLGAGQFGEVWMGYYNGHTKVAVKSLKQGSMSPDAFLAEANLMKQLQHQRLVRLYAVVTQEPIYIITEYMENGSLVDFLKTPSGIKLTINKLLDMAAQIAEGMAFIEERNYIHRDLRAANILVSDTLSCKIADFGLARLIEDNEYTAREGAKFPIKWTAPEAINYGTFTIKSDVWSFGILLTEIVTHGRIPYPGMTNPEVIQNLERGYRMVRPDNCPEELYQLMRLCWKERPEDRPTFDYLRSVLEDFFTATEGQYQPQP
Assay: Binding affinity towards p56 Lck tyrosine kinase SH2 domain was determined by biological assay

How did the pKd turn out when `COc1ccc(CNC(=O)[C@H](CCC(=O)O)NC(=O)[C@H](Cc2ccc(NC(=O)C(=O)O)cc2)NC(=O)Cc2ccc3ccccc3c2)cc1` was run?
Its pKd is 5.52.

How did the pKd turn out when `COc1ccc(CNC(=O)[C@H](CCC(=O)O)NC(=O)[C@H](Cc2ccc(NC(=O)C(=O)O)cc2)NC(=O)CCc2ccccc2)cc1` was run?
The pKd was 4.89.

With `COc1ccc(CNC(=O)[C@H](CCC(=O)O)NC(=O)[C@H](Cc2ccc(C(O)C(=O)O)cc2)NC(=O)Cc2cccc3ccccc23)cc1` (stereo partly specified) as the compound, how does the pKd read?
The pKd was 5.70.

`COc1ccc(CNC(=O)[C@H](CCC(=O)O)NC(=O)[C@H](Cc2ccc(C(F)(F)C(=O)O)cc2)NC(C)=O)cc1` was tested. Which pKd did it give?
Its pKd is 3.78.

With `COc1ccc(CNC(=O)[C@H](CCC(=O)O)NC(=O)[C@H](Cc2ccc(CS(=O)(=O)O)cc2)NC(C)=O)cc1` as the compound, how does the pKd read?
The pKd was 4.60.

With `COc1ccc(CNC(=O)[C@H](CCC(=O)O)NC(=O)[C@H](Cc2ccc(C(=O)C(=O)O)cc2)NC(C)=O)cc1` as the compound, how does the pKd read?
The pKd was 4.19.

How did the pKd turn out when `COc1ccc(CNC(=O)[C@H](CCC(=O)O)NC(=O)[C@H](Cc2ccc(CCC(=O)O)cc2)NC(C)=O)cc1` was run?
Its pKd is 3.74.

With `COc1ccc(CNC(=O)[C@H](CCC(=O)O)NC(=O)[C@H](Cc2ccc(NC(=O)C(=O)O)cc2)NC(=O)Cc2ccccc2)cc1` as the compound, how does the pKd read?
Its pKd is 4.77.

How did the pKd turn out when `COc1ccc(CNC(=O)[C@H](CCC(=O)O)NC(=O)[C@H](Cc2ccc(C(O)C(=O)O)cc2)NC(C)=O)cc1` (stereo partly specified) was run?
Its pKd is 4.82.

`COc1ccc(CNC(=O)[C@H](CCC(=O)O)NC(=O)[C@H](Cc2ccc(NC(=O)C(=O)O)cc2)NC(=O)c2ccccc2)cc1` was tested. Which pKd did it give?
The pKd was 4.49.

`COc1ccc(CNC(=O)[C@H](CCC(=O)O)NC(=O)[C@H](Cc2ccc(CC(=O)O)cc2)NC(C)=O)cc1` was tested. Which pKd did it give?
The pKd was 4.30.

How did the pKd turn out when `COc1ccc(CNC(=O)[C@H](CCC(=O)O)NC(=O)[C@H](Cc2ccc(CS(=O)(=O)O)cc2)NC(=O)Cc2cccc3ccccc23)cc1` was run?
Its pKd is 5.40.

`COc1ccc(CNC(=O)[C@H](CCC(=O)O)NC(=O)[C@H](Cc2ccc(CC(=O)O)cc2)NC(=O)Cc2cccc3ccccc23)cc1` was tested. Which pKd did it give?
Its pKd is 5.30.

With `COc1ccc(CNC(=O)[C@H](CCC(=O)O)NC(=O)[C@H](Cc2ccc(OP(=O)(O)O)cc2)NC(=O)Cc2cccc3ccccc23)cc1` as the compound, how does the pKd read?
Its pKd is 7.40.

With `COc1ccc(CNC(=O)[C@H](CCC(=O)O)NC(=O)[C@H](Cc2ccc(NC(=O)C(=O)O)cc2)NC(C)=O)cc1` as the compound, how does the pKd read?
Its pKd is 4.38.

`CC[C@H](C)[C@H](NC(=O)[C@H](CCC(=O)O)NC(=O)[C@H](CCC(=O)O)NC(=O)[C@H](Cc1ccc(CC(=O)O)cc1)NC(C)=O)C(=O)O` (Ac-[Phe(4-CH2COOH)]EEI-OH) was tested. Which pKd did it give?
Its pKd is 4.38.
